Each block holds one molecule with its values, some of them ahead of it.
Legend:
[1] = biological target: T1, Solute carrier organic anion transporter family member 1A2 (Homo sapiens, UniProt P46721); experiment: (§1) TP_TRANSPORTER: uptake in Xenopus laevis oocytes; assay type: functional, cell-based; conditions: oocyte
T1 sequence (P46721 whole entry): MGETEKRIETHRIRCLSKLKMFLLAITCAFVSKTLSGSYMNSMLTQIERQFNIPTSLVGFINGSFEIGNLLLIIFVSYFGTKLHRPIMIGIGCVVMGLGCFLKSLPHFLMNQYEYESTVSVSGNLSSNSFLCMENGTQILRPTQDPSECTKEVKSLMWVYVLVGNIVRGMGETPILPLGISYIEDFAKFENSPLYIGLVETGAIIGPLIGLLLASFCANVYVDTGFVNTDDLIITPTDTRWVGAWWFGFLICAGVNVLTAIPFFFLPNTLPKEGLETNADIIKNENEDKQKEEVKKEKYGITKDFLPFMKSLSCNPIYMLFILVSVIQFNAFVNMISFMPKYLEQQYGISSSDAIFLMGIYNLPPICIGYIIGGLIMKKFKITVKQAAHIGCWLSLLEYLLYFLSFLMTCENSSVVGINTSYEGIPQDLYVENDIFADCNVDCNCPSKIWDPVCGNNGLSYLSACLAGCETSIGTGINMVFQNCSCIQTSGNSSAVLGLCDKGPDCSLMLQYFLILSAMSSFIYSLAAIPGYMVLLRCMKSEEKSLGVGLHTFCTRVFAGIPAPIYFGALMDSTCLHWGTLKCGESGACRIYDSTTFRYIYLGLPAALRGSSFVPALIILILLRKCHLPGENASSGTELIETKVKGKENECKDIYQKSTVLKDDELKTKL

[2] = biological target: T2, Solute carrier organic anion transporter family member 2B1 (Homo sapiens, UniProt O94956); experiment: as §1; assay type: functional, cell-based; conditions: oocyte
T2 sequence (O94956 whole entry): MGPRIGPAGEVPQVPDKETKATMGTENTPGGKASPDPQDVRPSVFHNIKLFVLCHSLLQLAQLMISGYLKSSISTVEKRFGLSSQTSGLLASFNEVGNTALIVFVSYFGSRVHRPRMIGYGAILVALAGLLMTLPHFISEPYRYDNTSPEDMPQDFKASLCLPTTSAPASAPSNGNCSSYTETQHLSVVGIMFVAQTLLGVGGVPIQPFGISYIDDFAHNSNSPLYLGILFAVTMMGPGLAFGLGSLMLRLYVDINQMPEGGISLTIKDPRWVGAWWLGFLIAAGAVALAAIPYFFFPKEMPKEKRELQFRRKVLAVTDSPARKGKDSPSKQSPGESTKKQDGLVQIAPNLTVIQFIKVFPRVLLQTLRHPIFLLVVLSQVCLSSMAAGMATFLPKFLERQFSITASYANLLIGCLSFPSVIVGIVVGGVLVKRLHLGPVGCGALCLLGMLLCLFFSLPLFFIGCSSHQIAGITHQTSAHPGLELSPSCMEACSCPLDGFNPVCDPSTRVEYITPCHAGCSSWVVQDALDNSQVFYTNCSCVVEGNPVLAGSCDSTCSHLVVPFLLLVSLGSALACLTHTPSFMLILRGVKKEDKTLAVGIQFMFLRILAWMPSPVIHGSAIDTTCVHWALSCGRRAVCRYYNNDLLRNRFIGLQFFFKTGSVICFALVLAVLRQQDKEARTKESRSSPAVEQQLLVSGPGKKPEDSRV

[3] = biological target: T3, Solute carrier organic anion transporter family member 1B3 (OATP1B3) (Homo sapiens, UniProt Q9NPD5); experiment: as §1; assay type: functional, cell-based, Oocyte; conditions: Xenopus laevis oocytes expressing the transporter
T3 sequence (Q9NPD5 whole entry): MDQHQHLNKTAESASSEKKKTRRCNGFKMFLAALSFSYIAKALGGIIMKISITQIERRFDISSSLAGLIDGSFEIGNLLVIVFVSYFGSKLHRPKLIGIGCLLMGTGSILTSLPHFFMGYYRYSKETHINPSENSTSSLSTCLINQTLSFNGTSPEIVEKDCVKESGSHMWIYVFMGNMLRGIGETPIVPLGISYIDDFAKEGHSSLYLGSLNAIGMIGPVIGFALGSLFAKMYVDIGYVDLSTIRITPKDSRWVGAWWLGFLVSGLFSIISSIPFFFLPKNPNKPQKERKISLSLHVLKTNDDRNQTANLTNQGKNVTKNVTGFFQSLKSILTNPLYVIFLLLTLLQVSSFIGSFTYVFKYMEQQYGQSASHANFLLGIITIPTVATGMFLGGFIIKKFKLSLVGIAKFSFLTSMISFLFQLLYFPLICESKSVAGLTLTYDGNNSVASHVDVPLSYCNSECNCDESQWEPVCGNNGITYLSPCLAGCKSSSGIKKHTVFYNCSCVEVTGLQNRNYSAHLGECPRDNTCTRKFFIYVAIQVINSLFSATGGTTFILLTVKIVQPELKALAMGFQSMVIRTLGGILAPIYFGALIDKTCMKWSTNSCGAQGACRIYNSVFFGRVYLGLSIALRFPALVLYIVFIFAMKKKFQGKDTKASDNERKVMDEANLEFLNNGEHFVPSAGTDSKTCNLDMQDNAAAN

[4] = biological target: T4, Solute carrier organic anion transporter family member 1B1 (Homo sapiens, UniProt Q9Y6L6); experiment: (§2) TP_TRANSPORTER: inhibition of BSP uptake in Xenopus laevis oocytes; assay type: functional, cell-based, Oocyte
T4 sequence (Q9Y6L6 whole entry): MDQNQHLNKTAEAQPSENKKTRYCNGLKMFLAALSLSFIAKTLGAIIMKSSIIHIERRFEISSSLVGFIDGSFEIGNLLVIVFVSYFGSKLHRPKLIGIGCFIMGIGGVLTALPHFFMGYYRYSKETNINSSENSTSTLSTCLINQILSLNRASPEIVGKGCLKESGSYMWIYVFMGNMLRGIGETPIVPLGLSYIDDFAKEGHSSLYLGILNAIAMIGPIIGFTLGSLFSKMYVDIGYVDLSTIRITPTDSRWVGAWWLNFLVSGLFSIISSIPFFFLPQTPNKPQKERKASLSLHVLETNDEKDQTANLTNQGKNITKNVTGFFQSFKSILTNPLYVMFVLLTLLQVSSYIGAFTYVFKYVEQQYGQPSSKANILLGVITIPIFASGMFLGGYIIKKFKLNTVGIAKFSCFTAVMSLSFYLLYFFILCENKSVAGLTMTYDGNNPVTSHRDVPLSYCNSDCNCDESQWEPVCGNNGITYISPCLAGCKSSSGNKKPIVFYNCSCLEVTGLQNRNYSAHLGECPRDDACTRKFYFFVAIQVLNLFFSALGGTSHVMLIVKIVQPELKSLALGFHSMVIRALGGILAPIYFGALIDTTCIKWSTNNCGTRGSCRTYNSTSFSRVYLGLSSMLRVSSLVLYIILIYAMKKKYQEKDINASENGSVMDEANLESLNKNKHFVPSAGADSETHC

[5] = biological target: T5, Solute carrier organic anion transporter family member 1B3 (Homo sapiens, UniProt Q9NPD5); experiment: as §2; assay type: functional, cell-based, Oocyte
T5 sequence (Q9NPD5 whole entry): T3 sequence (Q9NPD5 whole entry)

[6] = biological target: T1, Solute carrier organic anion transporter family member 1A2; experiment: as §2; assay type: functional, cell-based, Oocyte
[7] = biological target: T2, Solute carrier organic anion transporter family member 2B1; experiment: as §2; assay type: functional, cell-based, Oocyte
[8] = substrate: CO[C@H]1/C=C/O[C@@]2(C)Oc3c(C)c(O)c4c(O)c(c(/C=N/N5CCN(C)CC5)c(O)c4c3C2=O)NC(=O)/C(C)=C\C=C\[C@H](C)[C@H](O)[C@@H](C)[C@@H](O)[C@@H](C)[C@H](OC(C)=O)[C@@H]1C; experiment: as §1; assay type: functional, cell-based, Oocyte

Molecule: CO[C@H]1/C=C/O[C@@]2(C)Oc3c(C)c(O)c4c(O)c(c(/C=N/N5CCN(C)CC5)c(O)c4c3C2=O)NC(=O)/C(C)=C\C=C\[C@H](C)[C@H](O)[C@@H](C)[C@@H](O)[C@@H](C)[C@H](OC(C)=O)[C@@H]1C [RIFAMPIN]
Activity [1]: is not a substrate [-]
Activity [2]: is not a substrate [-]
Km [3]: 2.3 µM
Ki [4]: 17 µM
Ki [5]: 5 µM
Ki [6]: 51 µM

Ki [4]: 2 µM
Ki [5]: 3 µM
Ki [6]: 11 µM
Ki [7]: 3 µM
Molecule: CO[C@H]1/C=C/O[C@@]2(C)Oc3c(C)c(O)c4c(O)c(cc(O)c4c3C2=O)NC(=O)/C(C)=C\C=C\[C@H](C)[C@H](O)[C@@H](C)[C@@H](O)[C@@H](C)[C@H](OC(C)=O)[C@@H]1C [RIFAMYCIN]

B1: Solute carrier organic anion transporter family member 1B1 (Homo sapiens) (protein)
chain: T4 sequence (Q9Y6L6 whole entry)
Km [8]: 13 µM

Reference: ChEMBL document CHEMBL2073929, “Interactions of rifamycin SV and rifampicin with organic anion uptake systems of human liver” (Hepatology, 2002)
